The target in one assay is FAK recombinant protein (Homo sapiens (Human), UniProt Q05397). The assay is described as follows: Inhibitory activity against FAK enzyme (HTRF, TK substrate). It counts as biochemical. Here is the method: A compound serially diluted with DMSO was mixed with a FAK recombinant protein. After the mixture was left to stand at room temperature for 10 min, a biotin-labeled TK substrate (TK) and ATP were added. […] The inhibition percentage and IC50 of the compound were calculated compared to the DMSO control group.

The subject of assay [1] is PC3 cells. The assay is described as follows: PC3 cell proliferation, 2D activity assay (Cell Titer-Lumi, 72 h). The class given is cell-based, human. To be noted: Homo sapiens, PC-3, read-out: 2D inhibitory activity against PC3 cells IC50.
Assay [2] relates to PC3 cells. Description: PC3 cell proliferation, 3D activity assay (3D culture, 14 days). The class given is cell-based, human. To be noted: Homo sapiens, PC-3, 336 h, read-out: 3D inhibitory activity against PC3 cells IC50.
The test system of assay [3] is PC3 cells. The assay is described as follows: Inhibition of PC3 cell low adsorption (adherent cell count, 4 h). It counts as cell-based. The settings on record: Homo sapiens, PC-3; 4 h treatment; read-out: IC50 against PC3 cell low adsorption. On the procedure:
PC3 cells were seeded at 8000 cells/well. 4 h after the cells were treated with a compound, the number of adherent cells was counted. The inhibition percentage and IC50 of the compound were calculated compared to the DMSO group.

SMILES strings stand for the structures.

Sequence of FAK recombinant protein (Q05397 whole entry): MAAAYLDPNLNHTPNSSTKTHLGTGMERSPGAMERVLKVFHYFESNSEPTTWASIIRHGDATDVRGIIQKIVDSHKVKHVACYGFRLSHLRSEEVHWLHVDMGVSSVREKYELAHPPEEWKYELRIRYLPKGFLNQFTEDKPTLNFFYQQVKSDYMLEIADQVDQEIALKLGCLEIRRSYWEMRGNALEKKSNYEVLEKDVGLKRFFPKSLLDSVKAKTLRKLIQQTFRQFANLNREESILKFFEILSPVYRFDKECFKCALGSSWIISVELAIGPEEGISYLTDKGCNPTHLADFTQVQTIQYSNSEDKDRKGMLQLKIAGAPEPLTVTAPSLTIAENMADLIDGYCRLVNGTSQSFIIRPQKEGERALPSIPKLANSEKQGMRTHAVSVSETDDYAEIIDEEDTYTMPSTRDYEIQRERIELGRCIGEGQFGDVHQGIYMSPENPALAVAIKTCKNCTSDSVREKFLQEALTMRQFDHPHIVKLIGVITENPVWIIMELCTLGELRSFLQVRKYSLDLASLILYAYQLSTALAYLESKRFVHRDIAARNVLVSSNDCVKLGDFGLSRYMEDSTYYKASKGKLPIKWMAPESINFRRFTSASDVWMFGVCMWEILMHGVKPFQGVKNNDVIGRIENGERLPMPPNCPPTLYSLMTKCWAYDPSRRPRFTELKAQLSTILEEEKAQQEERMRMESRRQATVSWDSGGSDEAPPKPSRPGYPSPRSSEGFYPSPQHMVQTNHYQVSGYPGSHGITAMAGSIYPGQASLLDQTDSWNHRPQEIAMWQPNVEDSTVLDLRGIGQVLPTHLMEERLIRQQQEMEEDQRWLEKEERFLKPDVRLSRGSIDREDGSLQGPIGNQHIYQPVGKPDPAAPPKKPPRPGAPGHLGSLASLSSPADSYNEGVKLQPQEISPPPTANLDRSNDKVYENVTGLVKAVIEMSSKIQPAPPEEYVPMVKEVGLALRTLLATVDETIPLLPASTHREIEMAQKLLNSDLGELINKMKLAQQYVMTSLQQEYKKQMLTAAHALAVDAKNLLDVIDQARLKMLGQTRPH

Usually IC50 stands for the concentration needed to halve the response being measured. Regarding `CN1C(=O)c2c(Oc3nc(Nc4ccc5c(c4)CC(=O)N5)ncc3C(F)(F)F)cccc2C12CC2` [Compound 69], the IC50 on FAK recombinant protein is below 20 nM; in the assay on PC3 cells [1] it was above 2000 nM; with PC3 cells [2], 8.52 nM; in the assay on PC3 cells [3] it was 13.4 nM.
Take `CN1C(=O)c2c(Oc3nc(Nc4ccc5c(c4)CCNC5=O)ncc3C(F)(F)F)cccc2C12CC2` [Compound 71]: the IC50 was below 20 nM at FAK recombinant protein, above 2000 nM in the assay on PC3 cells [1], 5.18 nM in the assay with PC3 cells [2] and 16.4 nM in the assay on PC3 cells [3].
Turning to `COc1cc(N2CCC(N3CCN(C)CC3)CC2)c(F)cc1Nc1ncc(C(F)(F)F)c(Oc2cccc3c2C(=O)N(C)C32CC2)n1` [Compound 121, 4′-((2-((5-fluoro-2-methoxy-4-(4-(4-methylpiperazin-1-yl)piperidin-1-yl)phenyl)amino)-5-(trifluoromethyl)pyrimidin-4-yl)oxy)-2′-methylspiro[cyclopropane-1,1′-isoindolin]-3′-one], the IC50 was below 20 nM at FAK recombinant protein, above 2000 nM in the assay with PC3 cells [1], below 5 nM with PC3 cells [2] and 7.2 nM in the assay with PC3 cells [3].
Regarding `COc1cc(C(=O)NC2CC3(CCN(C)CC3)C2)c(F)cc1Nc1ncc(C(F)(F)F)c(Oc2cccc3c2C(=O)N(C)C32CC2)n1` [Compound 8, 2-fluoro-5-methoxy-4-((4-((2′-methyl-3′-oxospiro[cyclopropane-1,1′-isoindolin]-4′-yl)oxy)-5-(trifluoromethyl)pyrimidin-2-yl)amino)-N-(7-methyl-7-azaspiro[3.5]nonan-2-yl)benzamide], the concentration for half-maximal inhibition (IC50) on FAK recombinant protein is below 20 nM; in the assay on PC3 cells [1], above 2000 nM; in the assay with PC3 cells [2] it was 0.96 nM; in the assay on PC3 cells [3], 7.54 nM.
Take `COc1cc(CN(C)C2CCN(C)CC2)ccc1Nc1ncc(Cl)c(Oc2cccc3c2C(=O)N(C)C32CC2)n1` [Compound 154]: the IC50 at FAK recombinant protein was below 20 nM; in the assay on PC3 cells [1], above 2000 nM; in the assay on PC3 cells [2] it was 5 to 50 nM; in the assay with PC3 cells [3], 6.9 nM.
On to `COc1cc(CN2CCN(C)CC2)ccc1Nc1ncc(C(F)(F)F)c(Oc2cccc3c2C(=O)N(C)C32CC2)n1` [Compound 82], for which the IC50 at FAK recombinant protein is below 20 nM; in the assay on PC3 cells [1] it was above 2000 nM; in the assay on PC3 cells [2], 5 to 50 nM; in the assay on PC3 cells [3], 6.29 nM.
As for `[2H]C([2H])([2H])N1CCC(NC(=O)c2cc(OC)c(Nc3ncc(C(F)(F)F)c(Oc4cccc5c4C(=O)N(C)C54CC4)n3)cc2F)CC1` [Compound 40], the concentration for half-maximal inhibition (IC50) on FAK recombinant protein is below 20 nM; in the assay with PC3 cells [1] it was above 2000 nM; in the assay with PC3 cells [2], below 5 nM.
As to `COc1cc(C(=O)NC2CCC3(CC2)CCN(C)C3)c(F)cc1Nc1ncc(C(F)(F)F)c(Oc2cccc3c2C(=O)N(C)C32CC2)n1` (stereo not drawn) [Compound 20], the figures for the IC50 on FAK recombinant protein, in the assay on PC3 cells [1] and in the assay with PC3 cells [2] were below 20 nM, above 2000 nM and below 5 nM, respectively.
In the case of `COc1cc(N2CCNCC2)ccc1Nc1ncc(C(F)(F)F)c(Oc2cccc3c2C(=O)N(C)C32CC2)n1` [Compound 74, 4′-((2-((2-methoxy-4-(piperazin-1-yl)phenyl)amino)-5-(trifluoromethyl)pyrimidin-4-yl)oxy)-2′-methylspiro[cyclopropane-1,1′-isoindolin]-3′-one], the half-maximal inhibitory concentration (IC50) is below 20 nM at FAK recombinant protein, above 2000 nM in the assay with PC3 cells [1] and 5 to 50 nM in the assay with PC3 cells [2].
For `COc1cc(C(=O)NC2CC3(CCNCC3)C2)ccc1Nc1ncc(C(F)(F)F)c(Oc2cccc3c2C(=O)N(C)C32CC2)n1` [Compound 44], the IC50 at FAK recombinant protein was below 20 nM; in the assay with PC3 cells [1] it was above 2000 nM; with PC3 cells [2], 5 to 50 nM.
Turning to `COc1cc(N2CC3(CCN(C)CC3)C2)ccc1Nc1ncc(Cl)c(Oc2cccc3c2C(=O)N(C)C32COC2)n1` [Compound 216], the values for the IC50 on FAK recombinant protein, in the assay with PC3 cells [1] and in the assay on PC3 cells [2] were below 20 nM, above 2000 nM and 5 to 50 nM, respectively.
As to `COc1cc(N2CCC3CN(C)CC3C2)ccc1Nc1ncc(Cl)c(Oc2cccc3c2C(=O)N(C)C32CC2)n1` (stereo not drawn) [Compound 173], the 50% inhibitory concentration (IC50) was below 20 nM at FAK recombinant protein, above 2000 nM in the assay on PC3 cells [1] and below 5 nM with PC3 cells [2].
Taken in the same sequence, the figures for `COc1cc(N2CCC(N3CCN(C)CC3)CC2)ccc1Nc1ncc(C#N)c(Oc2cccc3c2C(=O)N(C)C32CC2)n1` [Compound 200] were below 20 nM, above 2000 nM and below 5 nM.
Taken in the same sequence, the figures for `CN1CCn2nc(Nc3ncc(C(F)(F)F)c(Oc4cccc5c4C(=O)N(C)C54CC4)n3)cc2C1` [Compound 96] were below 20 nM, above 2000 nM and below 5 nM.
Taken in the same sequence, the figures for `COc1cc(C(=O)NC2CCN3CCN(C)C3C2)ccc1Nc1ncc(C(F)(F)F)c(Oc2cccc3c2C(=O)N(C)C32CC2)n1` (stereo not drawn) [Compound 28] were below 20 nM, above 2000 nM and 5 to 50 nM.
For `CN1C(=O)c2c(Oc3nc(Nc4cnn5c4COCC5)ncc3C(F)(F)F)cccc2C12CC2` [Compound 95], the half-inhibitory concentration (IC50) was below 20 nM on FAK recombinant protein, above 2000 nM with PC3 cells [1] and 5 to 50 nM in the assay with PC3 cells [2].
Turning to `COc1cc(N2CC3(CCN(C)C3)OC2=O)ccc1Nc1ncc(C(F)(F)F)c(Oc2cccc3c2C(=O)N(C)C32CC2)n1` (stereo not drawn) [Compound 65], the half-maximal inhibitory concentration (IC50) on FAK recombinant protein was below 20 nM; in the assay with PC3 cells [1], above 2000 nM; with PC3 cells [2] it was below 5 nM.
In the case of `COc1cc(CN2CCCC2)ccc1Nc1ncc(C(F)(F)F)c(Oc2cccc3c2C(=O)N(C)C32CC2)n1` [Compound 81], the IC50 is below 20 nM at FAK recombinant protein, above 2000 nM in the assay with PC3 cells [1] and 5 to 50 nM in the assay with PC3 cells [2].
Taken in the same sequence, the figures for `CCN1CCC2(CC1)CC(NC(=O)c1ccc(Nc3ncc(C(F)(F)F)c(Oc4cccc5c4C(=O)N(C)C54CC4)n3)c(OC)c1)C2` [Compound 46] were below 20 nM, above 2000 nM and 5 to 50 nM.
Turning to `Cc1cn(C2CCN(C)CC2)nc1Nc1ncc(C(F)(F)F)c(Oc2cccc3c2C(=O)N(C)C32CC2)n1` [Compound 98], the IC50 was below 20 nM on FAK recombinant protein, above 2000 nM in the assay on PC3 cells [1] and 5 to 50 nM in the assay with PC3 cells [2].
`COc1cc(C(=O)NC2CC3(CCN(C)CC3)C2)c(F)cc1Nc1ncc(Br)c(Oc2cccc3c2C(=O)N(C)C32CC2)n1` [Compound 175]: the IC50 at FAK recombinant protein was below 20 nM; with PC3 cells [1] it was above 2000 nM; with PC3 cells [2], below 5 nM.
Take `COc1cc(C(=O)NC2CCN(CS(C)(=O)=O)CC2)ccc1Nc1ncc(C(F)(F)F)c(Oc2cccc3c2C(=O)N(C)C32CC2)n1` [Compound 38]: the values for the IC50 at FAK recombinant protein, in the assay on PC3 cells [1] and with PC3 cells [2] were below 20 nM, above 2000 nM and 5 to 50 nM, respectively.
Consider `COc1cc(C(=O)NC2CCN(C)CC2)c(F)cc1Nc1ncc(Cl)c(Oc2cccc3c2C(=O)N(C)C32CCOCC2)n1` [Compound 215], for which the IC50 on FAK recombinant protein is below 20 nM; in the assay with PC3 cells [1], above 2000 nM; in the assay with PC3 cells [2], above 50 nM.
For `COc1cc(C(=O)N2CCC3(CCN(C)CC3)C2)ccc1Nc1ncc(C(F)(F)F)c(Oc2cccc3c2C(=O)N(C)C32CC2)n1` [Compound 60], the concentration for half-maximal inhibition (IC50) was below 20 nM at FAK recombinant protein, above 2000 nM in the assay with PC3 cells [1] and 5 to 50 nM in the assay with PC3 cells [2].
As to `COc1cc(N2CCN(CC(=O)N(C)C)CC2)ccc1Nc1ncc(Br)c(Oc2cccc3c2C(=O)N(C)C32CC2)n1` [Compound 187], the IC50 at FAK recombinant protein was below 20 nM; with PC3 cells [1], above 2000 nM; with PC3 cells [2] it was below 5 nM.
For the compound `COc1cc(N2CCC3(CCN(C)CC3)CC2)ccc1Nc1ncc(Cl)c(Oc2cccc3c2C(=O)N(C)C32CC2)n1` [Compound 147], the half-inhibitory concentration (IC50) on FAK recombinant protein is below 20 nM; with PC3 cells [1], above 2000 nM; in the assay with PC3 cells [2], below 5 nM.
As to `COCCN1CCN(c2ccc(Nc3ncc(Br)c(Oc4cccc5c4C(=O)N(C)C54CC4)n3)c(OC)c2)CC1` [Compound 185], the figures for the concentration for half-maximal inhibition (IC50) on FAK recombinant protein, with PC3 cells [1] and with PC3 cells [2] were below 20 nM, above 2000 nM and below 5 nM, respectively.
On to `COc1cc(N2CCC3CN(C)CCC32)ccc1Nc1ncc(Cl)c(Oc2cccc3c2C(=O)N(C)C32CC2)n1` (stereo not drawn) [Compound 168], for which the results for the IC50 on FAK recombinant protein, with PC3 cells [1] and with PC3 cells [2] were below 20 nM, above 2000 nM and below 5 nM, respectively.
For the compound `COc1cc(C(=O)NC2CCN(CC(N)=O)CC2)ccc1Nc1ncc(C(F)(F)F)c(Oc2cccc3c2C(=O)N(C)C32CC2)n1` [Compound 39], the IC50 was below 20 nM on FAK recombinant protein, above 2000 nM in the assay with PC3 cells [1] and below 5 nM in the assay on PC3 cells [2].
As to `COc1cc(C(=O)NC2CCN(C)CC2)ccc1Nc1ncc(C(F)(F)F)c(Cc2cccc3c2C(=O)N(C)C32CC2)n1` [Compound 99, 3-methoxy-4-((4-((2′-methyl-3′-oxospiro[cyclopropane-1,1′-isoindolin]-4′-yl)methyl)-5-(trifluoromethyl)pyrimidin-2-yl)amino)-N-(1-methylpiperidin-4-yl)benzamide], the concentration for half-maximal inhibition (IC50) on FAK recombinant protein is below 20 nM; with PC3 cells [1], above 2000 nM; in the assay with PC3 cells [2], 5 to 50 nM.
With `COc1cc(N2CCN(CC(=O)N(C)C)CC2)ccc1Nc1ncc(Cl)c(Oc2cccc3c2C(=O)N(C)C32CC2)n1` [Compound 144], the results for the half-maximal inhibitory concentration (IC50) on FAK recombinant protein, in the assay on PC3 cells [1] and with PC3 cells [2] were below 20 nM, above 2000 nM and below 5 nM, respectively.
Regarding `COc1cc(N2CCN(C)CC2)c(F)cc1Nc1ncc(C#N)c(Oc2cccc3c2C(=O)N(C)C32CC2)n1` [Compound 201], the IC50 is below 20 nM on FAK recombinant protein, above 2000 nM in the assay with PC3 cells [1] and below 5 nM in the assay on PC3 cells [2].
For the compound `COc1cc2c(cc1Nc1ncc(C(F)(F)F)c(Oc3cccc4c3C(=O)N(C)C43CC3)n1)CN(C)C(=O)C2` [Compound 90], the IC50 at FAK recombinant protein was below 20 nM; with PC3 cells [1], above 2000 nM; in the assay with PC3 cells [2], 5 to 50 nM.

The values are drawn from patent publication US20250154134A1, “COMPOUND AS FAK INHIBITOR AND USE THEREOF” (WIGEN BIOMEDICINE TECHNOLOGY (SHANGHAI) CO., LTD., priority 2022, published 2025).
